Laboratory results from patent publication US5328913A, “Minoxidil analogs as inhibitors of cell proliferation and lysyl hydroxylase” (priority 1992, dated 1994).
pIC50: −log10 of the molar value.

Columns and labels:
lysyl hydroxylase [1] = test: Lysyl hydroxylase activity in fibroblasts treated with minoxidil and its hydroxy derivatives (Example 3); type: cell-based, human; conditions: for Fibroblast Lysyl Hydroxylase Activity: 48 hr
Procedure: Culture of human skin fibroblasts derived from an apparently normal adult were grown to confluent densities in Dulbecco's modified Eagle's medium supplemented with 10% (v/v) fetal calf serum. Thereafter, the medium was replaced with medium supplemented with 0.5% dialyzed fetal calf serum. […] In some experiments, minoxodil was dissolved in 95% (v/v) ethanol; the final concentration of minoxidil was 0.3 mM and that of ethanol was 0.3%. Cultures treated with ethanol only served as the control.
During the last 3 hr of treatment, cultures received 100 μM ascorbic acid. The enzyme activities in extracts of treated cells were measured by tritium-release assays described previously (Murad and Pinnell, J. Biol. Chem. 262:11,973 (1987)).

lysyl hydroxylase [2] = test: Lysyl hydroxylase activity in extracts of treated human skin fibroblasts (Example 1, tritium-release assay); type: cell-based; conditions: for Lysyl hydroxylase activity (%): 1% ethanol
Procedure: (§1) Cultures of human skin fibroblasts grown to confluence were incubated for 72 h in medium supplemented with 1% ethanol containing various concentrations of minoxidil or deoxyminoxidil as indicated. Cells were then harvested, and the enzyme activities in extracts of these cells were measured by tritium-release assays (Murad and Pinnell, J. Biol. Chem. 262:11,973 (1987)). The results are expressed as percentages of zero-concentration values.
as §1, with “with 1% acetone containing various concentrations of minoxidil sulfate,” for “deoxyminoxidil”, “tritium release” for “tritium-release”
Skin fibroblast cultures derived from an apparently normal child (GM05659) were obtained from the Institute for Medical Research, Camden, N.J. The cells were subcultured by trypsinization and used before 25 population doublings. Typically, 4×10^5 cells were seeded onto 100-mm (diameter) plastic petri dishes and allowed to grow in 10 ml of Dulbecco's modified Eagle's minimum essential medium containing 5.6 mM glucose, buffered in pH 7.4 with 24 mM sodium biocarbonate/25 mM Hepes and supplemented with 20% (v/v) calf serum which had been inactivated for 30 min at 56° C. The cells were incubated at 37° C. in a humidified atmosphere of 5% CO2 plus 95% air.
After a week, the medium was replaced with medium supplemented with 0.5% heat-inactivated diaylzed calf serum, and the incubation was continued for 72 h in the presence of minoxidil or one of its structural analogs. The compounds were dissolved in 95% ethanol, except minoxidil sulfate which was dissolved in acetone; the final solvent concentration was 1% (v/v). During the last 3 h of incubation, cells received 100 μM Na L-ascorbate to ensure complete hydroxylation of the polypeptide precursors of precollagen (Murad et al, J. Invest. Dermatol. 75:404 (1980)).
The medium was then removed and the cells were washed twice with a solution containing 0.14 M NaCl, 5 mM KCl, 0.3 mM Na2 PO4, and 0.4 mM KH2 PO4, adjusted to pH 7.4. The cells were detached from the plates with a solution containing 0.05% trypsin, 0.54 mM EDTA, 5.5mM glucose, 6.90mM NaHCO3, […], and 5 mM KCl. The trypsinization was terminated with 2 vol of 20% serum-supplemented medium, and the cell number in an aliquot of the suspension was determined using a Coulter counter.
The detached cells were collected by centrifugation at 500g for 6 min at 4° C. washed twice by suspending in phosphate-buffered NaCl/KCl as above, and then centrifuged. The cell pellet was suspended in a medium (1 ml/5×10^6 cells) containing 0.2 M NaCl, 0.1 M glycine, 50 μM dithiothreitol, 20 mM Tris-HCl, buffer (pH 7.5), 0.1% Triton X-100, and 0.01% soybean trypsin inhibitor. The suspension was sonicated for 30 s using a Branson sonifier cell disrupter. The lysate was centrifuged at 27,000g for 1 h at 4° C., and the resulting supernatant was used for prolyl and lysyl hydroxylase assays (Murad and Pinnell, J. Biol. Chem. 262:11, 973 (1987)). The enzyme activities are based on a unit of soluble cell protein.
The protein content of cell extracts was determined by a dye-binding technique using Bio-Rad reagent and protein standard (Bradford, Anal. Biochem. 72:248 (1976)).
Note: Cultures of human skin fibroblasts grown to confluence were
incubated for 72 h in medium supplemented with 1% ethanol containing 1 mM
of the indicated compounds. Cells were then harvested, and the enzyme
activity in extracts of these cells was measured by a tritiumrelease
incubated for 72 h in medium supplemented with 1% ethanol containing 1 nM

Nc1cc(N2CCCCC2)nc(N)[n+]1[O-] [Minoxidil]
Fibroblast Lysyl Hydroxylase Activity (lysyl hydroxylase [1]; 1 mM): 378 cpm^3 H2 O/mg protein | Lysyl hydroxylase activity, % of control level (lysyl hydroxylase [1]; 1 mM, 72 hr): 25% | Lysyl Hydroxylase Activity (lysyl hydroxylase [1]; 1 mM, 72 hr (Table VI)): 308 cpm ^3 H2 O/mg protein | Lysyl Hydroxylase Activity (lysyl hydroxylase [1]; 1 mM, 72 hr (description table)): 308 cpm^3 H2 O/mg protein | lysyl hydroxylase suppressing activity at 5 mM (in words) (lysyl hydroxylase [1]; 5 mM): loses its effect | Fibroblast Lysyl Hydroxylase Activity (lysyl hydroxylase [1]; 5 mM): 1321 cpm^3 H2 O/mg protein | Lysyl hydroxylase activity (%) (lysyl hydroxylase [2]; 1 nM, 72 h, % of ethanol-treated controls (Table II)): 19-39% | Lysyl hydroxylase activity (%) (lysyl hydroxylase [2]; 1 mM, 72 h, % of solvent-treated controls (Table I)): 28% | decrease of the level of lysyl hydroxylase activity (lysyl hydroxylase [2]; 72 h, 1 mM (Table I text)): 72% | pIC50 (lysyl hydroxylase [2]; cultured fibroblasts, 72 h (FIG. 2), read-out: concentration required for 50% inhibition (lysyl hydroxylase)): 3.93
